Results reported in US20210045385A1, “PYRIDAZINONE-SUBSTITUTED KETOXIMES AS HERBICIDES” (FMC Corporation, priority 2018, published 2021).

What was measured:
Format in all cases: in vivo
[1] = test system: wheat (Triticum aestivum); assay: Test A postemergence, visual plant response rating; details: for Wheat plant response rating (0 to 100 scale): 500 g ai/ha, postemergence, 0 is no effect, 100 is complete control
Outline: (§1)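 Formulated in a non-phytotoxic solvent mixture including surfactant, each test chemical was sprayed onto the soil surface after sowing, or onto seedlings 2 to 10 cm high. Roughly 10 days later, plants were compared with untreated controls and rated for injury from 0 (no effect) to 100 (complete control).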

[2] = test system: foxtail, giant (giant foxtail, Setaria faberii); assay: Test A postemergence, visual plant response rating; details: for Foxtail, Giant plant response rating (0 to 100 scale): 500 g ai/ha, postemergence, 0 is no effect, 100 is complete control; for Foxtail, Giant plant response rating: Postemergence, 125 g ai/ha, 0 to 100 scale (0 no effect, 100 complete control)
Outline: as §1

[3] = test system: Italian ryegrass (Lolium multiflorum); assay: Test A postemergence, visual plant response rating; details: for Ryegrass, Italian plant response rating (0 to 100 scale): 500 g ai/ha, postemergence, 0 is no effect, 100 is complete control; for Ryegrass, Italian plant response rating: Postemergence, 125 g ai/ha, 0 to 100 scale (0 no effect, 100 complete control)
Outline: as §1

[4] = test system: pigweed (Amaranthus retroflexus); assay: Test A postemergence, visual plant response rating; details: for Pigweed plant response rating (0 to 100 scale): 500 g ai/ha, postemergence, 0 is no effect, 100 is complete control; for Pigweed plant response rating: Postemergence, 125 g ai/ha, 0 to 100 scale (0 no effect, 100 complete control)
Outline: as §1

[5] = test system: blackgrass (Alopecurus myosuroides); assay: Test A postemergence, visual plant response rating; details: for Blackgrass plant response rating (0 to 100 scale): 500 g ai/ha, postemergence, 0 is no effect, 100 is complete control; for Blackgrass plant response rating: Postemergence, 125 g ai/ha, 0 to 100 scale (0 no effect, 100 complete control)
Outline: as §1

[6] = test system: barnyardgrass (Echinochloa crus-galli); assay: Test A postemergence, visual plant response rating; details: for Barnyardgrass plant response rating (0 to 100 scale): 500 g ai/ha, postemergence, 0 is no effect, 100 is complete control; for Barnyardgrass plant response rating: Postemergence, 125 g ai/ha, 0 to 100 scale (0 no effect, 100 complete control)
Outline: as §1

[7] = test system: ragweed (common ragweed, Ambrosia elatior); assay: Test A postemergence, visual plant response rating; details: for Ragweed plant response rating (0 to 100 scale): 500 g ai/ha, postemergence, 0 is no effect, 100 is complete control; for Ragweed plant response rating: Postemergence, 125 g ai/ha, 0 to 100 scale (0 no effect, 100 complete control)
Outline: as §1

[8] = test system: corn (Zea mays); assay: Test A postemergence, visual plant response rating; details: for Corn plant response rating (0 to 100 scale): 500 g ai/ha, postemergence, 0 is no effect, 100 is complete control; for Corn plant response rating: Postemergence, 125 g ai/ha, 0 to 100 scale (0 no effect, 100 complete control)
Outline: as §1

[9] = test system: kochia (Kochia scoparia); assay: Test A postemergence, visual plant response rating; details: for Kochia plant response rating (0 to 100 scale): 500 g ai/ha, postemergence, 0 is no effect, 100 is complete control; for Kochia plant response rating: Postemergence, 125 g ai/ha, 0 to 100 scale (0 no effect, 100 complete control)
Outline: as §1

[10] = test system: galium (catchweed bedstraw, Galium aparine); assay: Test A postemergence, visual plant response rating; details: for Galium plant response rating (0 to 100 scale): 500 g ai/ha, postemergence, 0 is no effect, 100 is complete control; for Galium plant response rating: Postemergence, 125 g ai/ha, 0 to 100 scale (0 no effect, 100 complete control)
Outline: as §1

[11] = test system: foxtail, giant (giant foxtail, Setaria faberii); assay: Test A preemergence, visual plant response rating; details: for Foxtail, Giant plant response rating: 125 g ai/ha, preemergence, 0 to 100 scale, 0 no effect, 100 complete control; for Foxtail, Giant plant response rating (0 to 100 scale): 500 g ai/ha Preemergence, approx. 10 days
Outline: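 Compared with untreated controls, treated plants received a visual injury score on a 0–100 scale around 10 days after application. The compound, in a non-phytotoxic solvent with surfactant, was given as a preemergence soil spray or postemergence at the one- to two-leaf stage.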

[12] = test system: Italian ryegrass (Lolium multiflorum); assay: Test A preemergence, visual plant response rating; details: for Ryegrass, Italian plant response rating: 125 g ai/ha, preemergence, 0 to 100 scale, 0 no effect, 100 complete control; for Ryegrass, Italian plant response rating (0 to 100 scale): 500 g ai/ha Preemergence, approx. 10 days
Outline: as §1

[13] = test system: pigweed (Amaranthus retroflexus); assay: Test A preemergence, visual plant response rating; details: for Pigweed plant response rating: 125 g ai/ha, preemergence, 0 to 100 scale, 0 no effect, 100 complete control; for Pigweed plant response rating (0 to 100 scale): 500 g ai/ha Preemergence, approx. 10 days
Outline: as §1

[14] = test system: barnyardgrass (Echinochloa crus-galli); assay: Test A preemergence, visual plant response rating; details: for Barnyardgrass plant response rating: 125 g ai/ha, preemergence, 0 to 100 scale, 0 no effect, 100 complete control; for Barnyardgrass plant response rating (0 to 100 scale): 500 g ai/ha Preemergence, approx. 10 days
Outline: as §1

[15] = test system: ragweed (common ragweed, Ambrosia elatior); assay: Test A preemergence, visual plant response rating; details: for Ragweed plant response rating: 125 g ai/ha, preemergence, 0 to 100 scale, 0 no effect, 100 complete control; for Ragweed plant response rating (0 to 100 scale): 500 g ai/ha Preemergence, approx. 10 days
Outline: as §1

[16] = test system: kochia (Kochia scoparia); assay: Test A preemergence, visual plant response rating; details: for Kochia plant response rating: 125 g ai/ha, preemergence, 0 to 100 scale, 0 no effect, 100 complete control; for Kochia plant response rating (0 to 100 scale): 500 g ai/ha Preemergence, approx. 10 days
Outline: as §1

[17] = test system: sedge, umbrella (small-flower umbrella sedge, Cyperus difformis); assay: Test B flooded paddy test, visual plant response rating; details: 250 g ai/ha, Flood, applied to paddy water, 2-leaf stage, evaluated after 13 to 15 days
Outline: (§2)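 Test pots are flooded 3 cm above the soil at treatment, and the test substance is introduced into this standing water. After keeping the flood level and growing plants, treated at the 2-leaf stage, for 13 to 15 days under glass, injury is assessed visually versus controls.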

[18] = test system: barnyardgrass (Echinochloa crus-galli); assay: as above; details: 250 g ai/ha, Flood, applied to paddy water, 2-leaf stage, evaluated after 13 to 15 days
Outline: as §2

[19] = test system: rice (Oryza sativa); assay: as above; details: 250 g ai/ha, Flood, applied to paddy water, 2-leaf stage, evaluated after 13 to 15 days
Outline: as §2

[20] = test system: ducksalad (Heteranhera limosa); assay: as above; details: 250 g ai/ha, Flood, applied to paddy water, 2-leaf stage, evaluated after 13 to 15 days
Outline: as §2

Row | SMILES | Wheat plant response rating (0 to 100 scale) [1] | Foxtail, Giant plant response rating (0 to 100 scale) [2] | Foxtail, Giant plant response rating [2] | Ryegrass, Italian plant response rating (0 to 100 scale) [3] | Ryegrass, Italian plant response rating [3] | Pigweed plant response rating (0 to 100 scale) [4] | Pigweed plant response rating [4] | Blackgrass plant response rating (0 to 100 scale) [5] | Blackgrass plant response rating [5] | Barnyardgrass plant response rating (0 to 100 scale) [6] | Barnyardgrass plant response rating [6] | Ragweed plant response rating (0 to 100 scale) [7] | Ragweed plant response rating [7] | Corn plant response rating (0 to 100 scale) [8] | Corn plant response rating [8] | Kochia plant response rating (0 to 100 scale) [9] | Kochia plant response rating [9] | Galium plant response rating (0 to 100 scale) [10] | Galium plant response rating [10] | Foxtail, Giant plant response rating [11] | also measured
1 | CON=C(c1c(O)c(C)nn(C)c1=O)c1cccc2sccc12 [Compound 59] | 0 | 60 | 40 | 100 | 80 | 90 | 80 | 80 | 70 | 50 | 30 | 80 | 60 | 20 | 0 | 80 | 80 | 90 | 70 | 30 | Wheat plant response rating ([1]; Postemergence, 125 g ai/ha, 0 to 100 scale (0 no effect, 100 complete control)): 0; Foxtail, Giant plant response rating (0 to 100 scale) [11]: 70; Ryegrass, Italian plant response rating [12]: 30; Ryegrass, Italian plant response rating (0 to 100 scale) [12]: 90; Pigweed plant response rating [13]: 0; Pigweed plant response rating (0 to 100 scale) [13]: 70; Barnyardgrass plant response rating [14]: 0; Barnyardgrass plant response rating (0 to 100 scale) [14]: 30; Ragweed plant response rating [15]: 30; Ragweed plant response rating (0 to 100 scale) [15]: 100; Kochia plant response rating [16]: 10; Kochia plant response rating (0 to 100 scale) [16]: 60; Plant response rating, Sedge, Umbrella (0 to 100 scale, 0 is no effect, 100 is complete control) [17]: 0; Plant response rating, Barnyardgrass (0 to 100 scale, 0 is no effect, 100 is complete control) [18]: 0; Plant response rating, Rice (0 to 100 scale, 0 is no effect, 100 is complete control) [19]: 0; Plant response rating, Ducksalad (0 to 100 scale, 0 is no effect, 100 is complete control) [20]: 0
2 | CON=C(c1c(O)c(C)nn(C)c1=O)c1cccc2ccoc12 [Compound 60] | 40 | 30 | 0 | 20 | 10 | 90 | 50 | 10 | 0 | 0 | 0 | 40 | 20 | 0 | 0 | 50 | 30 | 70 | 60 | 10 | Foxtail, Giant plant response rating (0 to 100 scale) [11]: 10; Ryegrass, Italian plant response rating [12]: 0; Ryegrass, Italian plant response rating (0 to 100 scale) [12]: 40; Pigweed plant response rating [13]: 0; Pigweed plant response rating (0 to 100 scale) [13]: 30; Barnyardgrass plant response rating [14]: 0; Barnyardgrass plant response rating (0 to 100 scale) [14]: 0; Ragweed plant response rating [15]: 0; Ragweed plant response rating (0 to 100 scale) [15]: 30; Kochia plant response rating [16]: 0; Kochia plant response rating (0 to 100 scale) [16]: 0; Plant response rating, Sedge, Umbrella (0 to 100 scale, 0 is no effect, 100 is complete control) [17]: 0; Plant response rating, Barnyardgrass (0 to 100 scale, 0 is no effect, 100 is complete control) [18]: 0; Plant response rating, Rice (0 to 100 scale, 0 is no effect, 100 is complete control) [19]: 0; Plant response rating, Ducksalad (0 to 100 scale, 0 is no effect, 100 is complete control) [20]: 0
